What all share (experiment): AUC of viability dose-response curve (% viability x log10 dose units); higher = less sensitive
What all share (settings): 48 h

In one assay the test system is NOMO1. Summed up: (§1)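 Area under the curve was integrated by trapezoidal rule from a log-logistic fit of normalised viability, with curves exceeding full viability scaled and quality-control failures removed. The fit had four parameters over log10 doses. Viability came from CellTiter-Glo One luminescence, normalised per plate to DMSO and cell-free wells, after leukemia cells adapted to each medium (500 or 1000 cells/well, 1536-well plates) were exposed to library compounds in DMSO for 48 h at 37°C. The 11 threefold doses ran from 47 μM to 0.79 nM.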

The next assay has as its system P12-Ichikawa. Summed up: as §1
The subject of another assay is SEM cells. Summed up:
as §1

[1] abbreviates: RPMI 5 mM glucose + 10% dialyzed FBS.

Regarding `C[S+](=O)([O-])c1ccc(C(=O)Nc2ccc(Cl)c(-c3ccccn3)c2)c(Cl)c1`, the “AUC of viability dose-response curve” value in the assay on NOMO1 (HPLM + 10% dialyzed FBS) turned out to be 445; with NOMO1 (RPMI 5 mM glucose + 10% FBS), 468; in the assay with NOMO1 (setting [1]) it was 465; with P12-Ichikawa (HPLM + 10% dialyzed FBS), 464; in the assay on P12-Ichikawa (RPMI 5 mM glucose + 10% FBS), 454; in the assay on P12-Ichikawa (setting [1]), 462.
`Cc1csc(NC(=O)c2sc3nc4c(c(C(F)(F)F)c3c2N)CCC4)n1`: the “AUC of viability dose-response curve” value in the assay on NOMO1 (HPLM + 10% dialyzed FBS) came to 449; in the assay on NOMO1 (RPMI 5 mM glucose + 10% FBS) it was 419; in the assay with NOMO1 (setting [1]), 441; in the assay on P12-Ichikawa (HPLM + 10% dialyzed FBS), 444; in the assay with P12-Ichikawa (RPMI 5 mM glucose + 10% FBS), 433; with P12-Ichikawa (setting [1]) it was 394. Also, the entries for the “AUC of viability dose-response curve” value in the assay with SEM cells (HPLM + 10% dialyzed FBS), in the assay on SEM cells (RPMI 5 mM glucose + 10% FBS) and in the assay on SEM cells (setting [1]) were 429, 442 and 420, respectively.
With `COc1ncnc(N[S+](=O)([O-])c2ccc(N)cc2)c1OC`, the “AUC of viability dose-response curve” value with NOMO1 (HPLM + 10% dialyzed FBS) was 348; in the assay with NOMO1 (RPMI 5 mM glucose + 10% FBS), 394; in the assay on NOMO1 (setting [1]) it was 404; in the assay on P12-Ichikawa (HPLM + 10% dialyzed FBS), 341; in the assay with P12-Ichikawa (RPMI 5 mM glucose + 10% FBS), 320; in the assay on P12-Ichikawa (setting [1]), 316.
In the case of `CN1C(=O)C[C@H](C(=O)N[C@@H](Cc2cnc[nH]2)C(=O)N2CCC[C@H]2C(N)=O)NC1=O`, the “AUC of viability dose-response curve” value was 462 with NOMO1 (HPLM + 10% dialyzed FBS); 463 in the assay with NOMO1 (RPMI 5 mM glucose + 10% FBS); 435 in the assay with NOMO1 (setting [1]); 462 with P12-Ichikawa (HPLM + 10% dialyzed FBS); 464 in the assay on P12-Ichikawa (RPMI 5 mM glucose + 10% FBS); 470 in the assay with P12-Ichikawa (setting [1]). Besides, the “AUC of viability dose-response curve” value stood at 456 in the assay with SEM cells (HPLM + 10% dialyzed FBS), 435 in the assay on SEM cells (RPMI 5 mM glucose + 10% FBS) and 459 with SEM cells (setting [1]).
In the case of `CCC(=O)N[C@H]1CC[C@H](C(=O)N(C)c2ccc(-c3nc4ccccc4o3)cc2)C1`, the “AUC of viability dose-response curve” value in the assay with NOMO1 (HPLM + 10% dialyzed FBS) came out at 454; in the assay on NOMO1 (RPMI 5 mM glucose + 10% FBS), 449; in the assay with NOMO1 (setting [1]), 415; with P12-Ichikawa (HPLM + 10% dialyzed FBS), 477; in the assay with P12-Ichikawa (RPMI 5 mM glucose + 10% FBS), 458; with P12-Ichikawa (setting [1]) it was 453.
Turning to `O=C\1N(N\C=C1[N]2C=CN=N2)C3=NC=NC(=C3)N4CCOCC4`, the “AUC of viability dose-response curve” value in the assay on NOMO1 (HPLM + 10% dialyzed FBS) stood at 221; with NOMO1 (RPMI 5 mM glucose + 10% FBS), 210; with NOMO1 (setting [1]), 222; in the assay with P12-Ichikawa (HPLM + 10% dialyzed FBS) it was 211; with P12-Ichikawa (RPMI 5 mM glucose + 10% FBS), 225; with P12-Ichikawa (setting [1]) it was 248.
Take `COc1cc2c(Nc3ccc(Br)cc3F)ncnc2cc1OCC1CCN(C)CC1`: the “AUC of viability dose-response curve” value was found to be 373 with NOMO1 (HPLM + 10% dialyzed FBS); 373 in the assay on NOMO1 (RPMI 5 mM glucose + 10% FBS); 380 in the assay on NOMO1 (setting [1]); 419 in the assay with P12-Ichikawa (HPLM + 10% dialyzed FBS); 396 in the assay with P12-Ichikawa (RPMI 5 mM glucose + 10% FBS); 398 in the assay on P12-Ichikawa (setting [1]).
On to `NCCCCNCCCN`, for which the “AUC of viability dose-response curve” value with NOMO1 (HPLM + 10% dialyzed FBS) stood at 438; with NOMO1 (RPMI 5 mM glucose + 10% FBS), 460; with NOMO1 (setting [1]) it was 460; in the assay on P12-Ichikawa (HPLM + 10% dialyzed FBS), 458; in the assay with P12-Ichikawa (RPMI 5 mM glucose + 10% FBS) it was 434; in the assay with P12-Ichikawa (setting [1]), 445. The figures for the “AUC of viability dose-response curve” value with SEM cells (HPLM + 10% dialyzed FBS), with SEM cells (RPMI 5 mM glucose + 10% FBS) and with SEM cells (setting [1]) were 373, 427 and 388, respectively.
Consider `CC[C@@]1(O)C(=O)OC\C2=C1\C=C\3N(CC4=C3N=C5C=CC=CC5=C4)C2=O`, for which the “AUC of viability dose-response curve” value in the assay with NOMO1 (HPLM + 10% dialyzed FBS) is 248; in the assay on NOMO1 (RPMI 5 mM glucose + 10% FBS) it was 241; in the assay with NOMO1 (setting [1]) it was 246; with P12-Ichikawa (HPLM + 10% dialyzed FBS), 172; in the assay on P12-Ichikawa (RPMI 5 mM glucose + 10% FBS) it was 164; in the assay with P12-Ichikawa (setting [1]), 161. In addition, the “AUC of viability dose-response curve” value with SEM cells (HPLM + 10% dialyzed FBS) came out at 190; with SEM cells (RPMI 5 mM glucose + 10% FBS), 158; in the assay on SEM cells (setting [1]) it was 165.
For `COc1ccc(C2Sc3ccccc3N(CCN(C)C)C(=O)C2OC(C)=O)cc1` (centres undefined), the “AUC of viability dose-response curve” value was 469 in the assay with NOMO1 (HPLM + 10% dialyzed FBS); 463 in the assay on NOMO1 (RPMI 5 mM glucose + 10% FBS); 460 in the assay on NOMO1 (setting [1]); 467 with P12-Ichikawa (HPLM + 10% dialyzed FBS); 468 in the assay on P12-Ichikawa (RPMI 5 mM glucose + 10% FBS); 445 in the assay on P12-Ichikawa (setting [1]). Moreover, the “AUC of viability dose-response curve” value with SEM cells (HPLM + 10% dialyzed FBS) was determined as 473; with SEM cells (RPMI 5 mM glucose + 10% FBS), 469; in the assay on SEM cells (setting [1]), 474.
On to `CN(C)c1nc(Cc2ccc(NC(=O)c3ccc4ccccc4c3)cc2)nc(Cl)c1CC(=O)O`, for which the “AUC of viability dose-response curve” value was 377 with NOMO1 (HPLM + 10% dialyzed FBS); 401 in the assay with NOMO1 (RPMI 5 mM glucose + 10% FBS); 392 with NOMO1 (setting [1]); 440 in the assay with P12-Ichikawa (HPLM + 10% dialyzed FBS); 427 in the assay on P12-Ichikawa (RPMI 5 mM glucose + 10% FBS); 434 with P12-Ichikawa (setting [1]). The “AUC of viability dose-response curve” value is 461 in the assay on SEM cells (HPLM + 10% dialyzed FBS), 447 in the assay with SEM cells (RPMI 5 mM glucose + 10% FBS) and 455 in the assay with SEM cells (setting [1]).
In the case of `Nc1cc(C(F)(F)F)c(-c2cc(N3CCOCC3)nc(N3CCOCC3)n2)cn1`, the “AUC of viability dose-response curve” value in the assay with NOMO1 (HPLM + 10% dialyzed FBS) was 317; in the assay with NOMO1 (RPMI 5 mM glucose + 10% FBS), 340; in the assay with NOMO1 (setting [1]) it was 334; with P12-Ichikawa (HPLM + 10% dialyzed FBS), 328; in the assay on P12-Ichikawa (RPMI 5 mM glucose + 10% FBS) it was 334; with P12-Ichikawa (setting [1]), 329. Besides, the “AUC of viability dose-response curve” value with SEM cells (HPLM + 10% dialyzed FBS) came out at 307; in the assay with SEM cells (RPMI 5 mM glucose + 10% FBS) it was 283; with SEM cells (setting [1]), 299.
Consider `CNC[C@H](O)c1cccc(O)c1`, for which the figures for the “AUC of viability dose-response curve” value in the assay with SEM cells (HPLM + 10% dialyzed FBS), in the assay on SEM cells (RPMI 5 mM glucose + 10% FBS) and in the assay on SEM cells (setting [1]) were 410, 388 and 417, respectively.
For the compound `COc1ccc2[nH]c([S+]([O-])Cc3ncc(C)c(OC)c3C)nc2c1` (centres undefined), the “AUC of viability dose-response curve” value with NOMO1 (HPLM + 10% dialyzed FBS) is 411; in the assay with NOMO1 (RPMI 5 mM glucose + 10% FBS), 434; in the assay with NOMO1 (setting [1]), 418; with P12-Ichikawa (HPLM + 10% dialyzed FBS) it was 427; with P12-Ichikawa (RPMI 5 mM glucose + 10% FBS) it was 398; in the assay on P12-Ichikawa (setting [1]), 363. Also, the “AUC of viability dose-response curve” value was 354 in the assay on SEM cells (HPLM + 10% dialyzed FBS), 411 in the assay with SEM cells (RPMI 5 mM glucose + 10% FBS) and 392 with SEM cells (setting [1]).
For the compound `CC(O)(C#Cc1ccc2c(c1)N(c1nc(N)ncc1Cl)CC2)c1nccs1` (centres undefined), the “AUC of viability dose-response curve” value in the assay on NOMO1 (HPLM + 10% dialyzed FBS) was determined as 455; with NOMO1 (RPMI 5 mM glucose + 10% FBS) it was 467; in the assay with NOMO1 (setting [1]), 468; in the assay with P12-Ichikawa (HPLM + 10% dialyzed FBS), 477; in the assay with P12-Ichikawa (RPMI 5 mM glucose + 10% FBS), 468; with P12-Ichikawa (setting [1]), 464. For the same compound, the figures for the “AUC of viability dose-response curve” value in the assay on SEM cells (HPLM + 10% dialyzed FBS), in the assay on SEM cells (RPMI 5 mM glucose + 10% FBS) and in the assay on SEM cells (setting [1]) were 469, 430 and 465, respectively.
For `CC[C@H](NC(=O)[C@H](C)NC)C(=O)N1C[C@@H](O)C[C@H]1Cc1c(-c2[nH]c3cc(F)ccc3c2C[C@@H]2C[C@H](O)CN2C(=O)[C@H](CC)NC(=O)[C@H](C)NC)[nH]c2cc(F)ccc12`, the “AUC of viability dose-response curve” value was found to be 347 with NOMO1 (HPLM + 10% dialyzed FBS); 323 in the assay with NOMO1 (RPMI 5 mM glucose + 10% FBS); 362 in the assay with NOMO1 (setting [1]); 469 in the assay with SEM cells (HPLM + 10% dialyzed FBS); 442 in the assay on SEM cells (RPMI 5 mM glucose + 10% FBS); 437 in the assay on SEM cells (setting [1]).
For the compound `CC1(N2CCC(n3c([C@@H]4CCCNC4)nc4ccccc43)CC2)CCCCCCC1`, the “AUC of viability dose-response curve” value came out at 420 in the assay on NOMO1 (HPLM + 10% dialyzed FBS); 460 in the assay on NOMO1 (RPMI 5 mM glucose + 10% FBS); 433 in the assay on NOMO1 (setting [1]); 456 in the assay with P12-Ichikawa (HPLM + 10% dialyzed FBS); 458 in the assay with P12-Ichikawa (RPMI 5 mM glucose + 10% FBS); 456 in the assay with P12-Ichikawa (setting [1]). The “AUC of viability dose-response curve” value in the assay on SEM cells (HPLM + 10% dialyzed FBS) was 430; in the assay with SEM cells (RPMI 5 mM glucose + 10% FBS) it was 467; in the assay on SEM cells (setting [1]) it was 471.
As to `CCC\C1=C\C(=O)NC(=S)N1`, the “AUC of viability dose-response curve” value with NOMO1 (HPLM + 10% dialyzed FBS) turned out to be 407; with NOMO1 (RPMI 5 mM glucose + 10% FBS) it was 421; in the assay on NOMO1 (setting [1]) it was 452; with P12-Ichikawa (HPLM + 10% dialyzed FBS) it was 413; with P12-Ichikawa (RPMI 5 mM glucose + 10% FBS) it was 399; in the assay on P12-Ichikawa (setting [1]), 425.
`Cn1cc(/C=C2\C(=O)Nc3cccnc32)c2ccccc21`: the “AUC of viability dose-response curve” value in the assay with NOMO1 (HPLM + 10% dialyzed FBS) is 464; with NOMO1 (RPMI 5 mM glucose + 10% FBS) it was 451; in the assay on NOMO1 (setting [1]), 449; with P12-Ichikawa (HPLM + 10% dialyzed FBS) it was 414; with P12-Ichikawa (RPMI 5 mM glucose + 10% FBS), 442; with P12-Ichikawa (setting [1]), 437. In addition, the figures for the “AUC of viability dose-response curve” value with SEM cells (HPLM + 10% dialyzed FBS), in the assay on SEM cells (RPMI 5 mM glucose + 10% FBS) and in the assay with SEM cells (setting [1]) were 430, 421 and 415, respectively.

The record behind these values is the supplement of paper PMC11451515.
